Laboratory results: patent publication US20260184663A1, “INDENE COMPOUNDS, PHARMACEUTICAL COMPOSITIONS THEREOF, AND THEIR THERAPEUTIC APPLICATIONS” (NucMito Pharmaceuticals co. Ltd., priority 2022, published 2026)

Assays:
Format in all cases: cell-based
[1] = test system: B16F10 (malignant melanoma); assay: Antiproliferative activity (CCK-8 cell viability), B16F10; settings: Mus musculus, 72 h, read-out: Antiproliferative activity in cancerous cells, B16F10 (inhibition of cell growth); for inhibition at 3.3 µM: B16-F10, Compound concentration: 3.3 μM; for inhibition at 10 µM: B16-F10, Compound concentration: 10 μM
Outline: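 Attached B16F10 cells in 96-well plates were incubated with compound at 37° C for 72 h, followed by 10 μL CCK-8 reagent per well and a further 4 h incubation. A multi-well plate reader measured absorbance at 450 nm. Percent viability across replicates was calculated against DMSO vehicle-treated cells.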

[2] = test system: A431 (epidermoid carcinoma); assay: Antiproliferative activity (CCK-8 cell viability), A431; settings: Homo sapiens, 72 h, read-out: Antiproliferative activity in cancerous cells, A431 (inhibition of cell growth); for inhibition at 3.3 µM: A-431, Compound concentration: 3.3 μM; for inhibition at 10 µM: A-431, Compound concentration: 10 μM
Outline: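 Cell viability of compound-treated A431 cells was measured with a Cell Counting Kit-8. Each well received 10 μL of CCK-8 after 72 h of compound exposure, followed by 4 h incubation at 37° C. and a 450 nm plate-reader measurement. Percent viability was calculated relative to DMSO controls across replicates.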

[3] = test system: HepG2 (liver cancer); assay: Antiproliferative activity (CCK-8 cell viability), HepG2; settings: Homo sapiens, 72 h, read-out: Antiproliferative activity in cancerous cells, HepG2 (inhibition of cell growth); for inhibition at 3.3 µM: Compound concentration: 3.3 μM; for inhibition at 10 µM: Compound concentration: 10 μM
Outline: (§1)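 Cells were seeded at 2,000-5,000/well (HeLa in MEM, HepG2 and SW480 in DMEM, A549 in F-12K, all with 10% FBS) and treated with compound at 3.3, 10 or 30 μM for 72 h at 37° C. CCK-8 was added for 4 h, absorbance was read at 450 nm, and viability was expressed relative to DMSO-treated wells.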

[4] = test system: MDA-MB-231 (breast cancer); assay: Antiproliferative activity (CCK-8 cell viability), MDA-MB-231; settings: Homo sapiens, 72 h, read-out: Antiproliferative activity in cancerous cells, MDA-MB-231 (inhibition of cell growth); for inhibition at 3.3 µM: Compound concentration: 3.3 μM; for inhibition at 10 µM: Compound concentration: 10 μM
Outline: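 In this CCK-8 viability assay, MDA-MB-231 cells maintained in Dulbecco's modified Eagle's medium containing 10% fetal bovine serum were placed in 96-well plates (2,000-5,000 cells/well) and treated with compound for 72 h at 37° C. A 4 h incubation with 10 μL CCK-8 followed, plates were read at 450 nm, and viability was expressed against DMSO vehicle wells across replicates.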

[5] = test system: A549 (lung adenocarcinoma); assay: Antiproliferative activity (CCK-8 cell viability), A549; settings: Homo sapiens, 72 h, read-out: Antiproliferative activity in cancerous cells, A549 (inhibition of cell growth); for inhibition at 3.3 µM: Compound concentration: 3.3 μM; for inhibition at 10 µM: Compound concentration: 10 μM
Outline: as §1

[6] = test system: SW480 (colon cancer); assay: Antiproliferative activity (CCK-8 cell viability), SW480; settings: Homo sapiens, 72 h, read-out: Antiproliferative activity in cancerous cells, SW480 (inhibition of cell growth); for inhibition at 3.3 µM: Compound concentration: 3.3 μM; for inhibition at 10 µM: Compound concentration: 10 μM
Outline: as §1

[7] = test system: HeLa (cervical cancer); assay: Antiproliferative activity (CCK-8 cell viability), HeLa; settings: Homo sapiens, 72 h, read-out: Antiproliferative activity in cancerous cells, HELA (inhibition of cell growth); for inhibition at 3.3 µM: Compound concentration: 3.3 μM; for inhibition at 10 µM: Compound concentration: 10 μM
Outline: as §1

CCc1ccc2c(c1)C(CC(=O)O)=C(C)/C2=C/c1ccc(COc2ccc(Cl)cc2)cc1 [B56, (Z)-2-(1-(4-((4-Chlorophenoxy)methyl)benzylidene)-5-ethyl-2-methyl-1H-inden-3-yl)acetic acid]
inhibition at 3.3 µM [1]: 30 to 50% | inhibition at 10 µM [1]: ≥ 50% | inhibition at 3.3 µM [2]: ≥ 50% | inhibition at 10 µM [2]: ≥ 50% | inhibition at 3.3 µM [3]: ≥ 50% | inhibition at 10 µM [3]: ≥ 50% | inhibition at 3.3 µM [4]: < 30% | inhibition at 10 µM [4]: 30 to 50% | inhibition at 3.3 µM [5]: 30 to 50% | inhibition at 10 µM [5]: ≥ 50% | inhibition at 3.3 µM [6]: 30 to 50% | inhibition at 10 µM [6]: ≥ 50% | inhibition at 3.3 µM [7]: ≥ 50% | inhibition at 10 µM [7]: ≥ 50%

CC1=C(CC(=O)O)c2ccc(Cl)cc2/C1=C\c1ccc(Oc2ccc(F)cc2)cc1 [C67, (Z)-2-(6-Chloro-1-(4-(4-fluorophenoxy)benzylidene)-2-methyl-1H-inden-3-yl)acetic acid]
inhibition at 3.3 µM [1]: < 30% | inhibition at 10 µM [1]: < 30% | inhibition at 3.3 µM [2]: 30 to 50% | inhibition at 10 µM [2]: ≥ 50% | inhibition at 3.3 µM [3]: 30 to 50% | inhibition at 10 µM [3]: ≥ 50% | inhibition at 3.3 µM [4]: < 30% | inhibition at 10 µM [4]: ≥ 50% | inhibition at 3.3 µM [5]: < 30% | inhibition at 10 µM [5]: ≥ 50% | inhibition at 3.3 µM [6]: 30 to 50% | inhibition at 10 µM [6]: 30 to 50% | inhibition at 3.3 µM [7]: < 30% | inhibition at 10 µM [7]: < 30%

CC1=C(CC(=O)O)c2cc(F)ccc2/C1=C\c1ccc(OCCc2ccc(Cl)cc2)cc1 [B35, (Z)-2-(1-(4-(4-Chlorophenethoxy)benzylidene)-5-fluoro-2-methyl-1H-inden-3-yl)acetic acid]
inhibition at 3.3 µM [1]: ≥ 50% | inhibition at 10 µM [1]: ≥ 50% | inhibition at 3.3 µM [2]: ≥ 50% | inhibition at 10 µM [2]: ≥ 50% | inhibition at 3.3 µM [3]: 30 to 50% | inhibition at 10 µM [3]: ≥ 50% | inhibition at 3.3 µM [4]: ≥ 50% | inhibition at 10 µM [4]: ≥ 50% | inhibition at 3.3 µM [5]: ≥ 50% | inhibition at 10 µM [5]: ≥ 50% | inhibition at 3.3 µM [6]: < 30% | inhibition at 10 µM [6]: ≥ 50% | inhibition at 3.3 µM [7]: < 30% | inhibition at 10 µM [7]: ≥ 50%

CC1=C(CC(=O)O)c2cc(Cl)ccc2/C1=C\c1ccc(Oc2ccc(F)c(F)c2)cc1 [C76, (Z)-2-(5-Chloro-1-(4-(3,4-difluorophenoxy)benzylidene)-2-methyl-1H-inden-3-yl)acetic acid]
inhibition at 3.3 µM [1]: 30 to 50% | inhibition at 10 µM [1]: ≥ 50% | inhibition at 3.3 µM [2]: ≥ 50% | inhibition at 10 µM [2]: ≥ 50% | inhibition at 3.3 µM [3]: < 30% | inhibition at 10 µM [3]: ≥ 50% | inhibition at 3.3 µM [4]: < 30% | inhibition at 10 µM [4]: ≥ 50% | inhibition at 3.3 µM [5]: 30 to 50% | inhibition at 10 µM [5]: ≥ 50% | inhibition at 3.3 µM [6]: < 30% | inhibition at 10 µM [6]: ≥ 50% | inhibition at 3.3 µM [7]: 30 to 50% | inhibition at 10 µM [7]: ≥ 50%
